From paper PMC7194015, “Proline-Rich Antimicrobial Peptides in Medicinal Maggots of Lucilia sericata Interact With Bacterial DnaK But Do Not Inhibit Protein Synthesis” (Frontiers in Pharmacology, 2020)
Ends that are not written are not given here.

Experiments:
[1] = test system: E. coli JM83 cells carrying plasmid pCH110; test: Bacterial membrane permeabilization assay (β-galactosidase release); type: cell-based
Protocol: We tested the activity of the L. sericata AMPs against E. coli JM83, carrying plasmid pCH110 (Pharmacia-Amersham, Piscatway, NJ, USA).
Membrane permeabilization was quantified by measuring the activity of β-galactosidase released from E. coli JM83 cells carrying plasmid pCH110, which encodes a constitutive, cytoplasmic form of the enzyme ([Zdybicka-Barabas et al., 2013]). The peptides were pre-incubated for 15 min at 37°C in 23 μl 20 mM phosphate buffer (pH 6.8) before adding 2 μl of a suspension of mid-logarithmic phase E. coli cells (5 × 10^5 colony forming units, prepared in the same buffer). The final AMP concentrations were 0.0625–2 µM Lser-stomoxyn and up to 50 µM for the Lser-PRPs ([Pöppel et al., 2015]; [Hirsch et al., 2019]). After incubation for 45 min at 37°C, we added 220 μl 20 mM HEPES/150 mM NaCl (pH 7.5) and 5 μl 50 mM p-nitrophenyl-β-D-galactopyranoside. We incubated the samples at 37°C for a further 90 min and then measured the absorbance at 405 nm, which is proportional to the amount of released β-galactosidase. Live bacteria incubated in growth medium as well as dead bacteria after treatment with 5 µM synthetic cecropin B (Sigma-Aldrich) served as control samples. We set the perforation level of dead bacteria to 100%. All assays were performed six times in triplicate for each type of sample.

E. coli JM83 = test: Atomic force microscopy of bacterial cell surface; type: cell-based; conditions: 90 min at 37°C
Protocol: Bacterial samples were prepared for atomic force microscopy (AFM) as previously described ([Zdybicka-Barabas et al., 2012]; [Zdybicka-Barabas et al., 2013]). Briefly, log-phase E. coli JM83 cells (OD600 = 0.2) in 100 µL lysogeny broth were incubated at 37°C for 90 min in the presence of individual or combined AMPs, or without AMPs as a negative control. We used concentrations of 50 μM Lser-PRP2, 50 μM Lser-PRP3, and 0.25 μM Lser-stomoxyn. The samples were centrifuged (8,000 × g, 4°C, 10 min), washed twice with apyrogenic water, resuspended in 5 μl apyrogenic water, applied to mica disks and allowed to dry at 28°C overnight.
The cell surface was imaged using a NanoScope V AFM (Veeco, Plainview, NY, USA) in Peak Force QNM operation mode and a silicon tip NSG 30 with a spring constant of 20 N/m (NT-MDT, Moscow, Russian Federation). The results were processed using Nanoscope Analysis v1.40 (Veeco). Three fields on each mica disk were imaged. The roughness values were measured over the entire bacterial cell surface in 3 × 3 µm areas. The average surface root mean square (RMS) roughness was calculated from 25 fields (300 × 300 nm). Section profiles and 3D images were produced using WSxM v5.0 ([Horcas et al., 2007]).

[2] = test system: panel of 114 multi-drug resistant clinical isolates; parameters: method as in Hirsch et al., 2019; conditions: ref Hirsch et al., 2019; cited from earlier work
Gram-negative bacteria = conditions: ref Pöppel et al., 2015; Hirsch et al., 2019; cited from earlier work
Source text: Several previous investigations have addressed the AMP repertoire of L. sericata. […] More recent studies have characterized the defensin-family AMP lucifensin ([Andersen et al., 2010]; [Čeřovský et al., 2010]; [Čeřovský et al., 2011]) and the antifungal AMP lucimycin ([P ...

bacterial chaperone DnaK = target: T1, bacterial chaperone DnaK (Escherichia coli, UniProt P0A6Y8); test: FRET assay, DnaK-binding (fluorescence quenching with DnaK-BHQ10); conditions: for maximum quenching effect: n = 3; for Kd: N-terminal 5(6)-carboxyfluorescein, C-terminal amide, quenching assay, non-linear regression (SlideWrite v7.01)
T1 construct: made in house
T1 sequence (P0A6Y8 whole entry): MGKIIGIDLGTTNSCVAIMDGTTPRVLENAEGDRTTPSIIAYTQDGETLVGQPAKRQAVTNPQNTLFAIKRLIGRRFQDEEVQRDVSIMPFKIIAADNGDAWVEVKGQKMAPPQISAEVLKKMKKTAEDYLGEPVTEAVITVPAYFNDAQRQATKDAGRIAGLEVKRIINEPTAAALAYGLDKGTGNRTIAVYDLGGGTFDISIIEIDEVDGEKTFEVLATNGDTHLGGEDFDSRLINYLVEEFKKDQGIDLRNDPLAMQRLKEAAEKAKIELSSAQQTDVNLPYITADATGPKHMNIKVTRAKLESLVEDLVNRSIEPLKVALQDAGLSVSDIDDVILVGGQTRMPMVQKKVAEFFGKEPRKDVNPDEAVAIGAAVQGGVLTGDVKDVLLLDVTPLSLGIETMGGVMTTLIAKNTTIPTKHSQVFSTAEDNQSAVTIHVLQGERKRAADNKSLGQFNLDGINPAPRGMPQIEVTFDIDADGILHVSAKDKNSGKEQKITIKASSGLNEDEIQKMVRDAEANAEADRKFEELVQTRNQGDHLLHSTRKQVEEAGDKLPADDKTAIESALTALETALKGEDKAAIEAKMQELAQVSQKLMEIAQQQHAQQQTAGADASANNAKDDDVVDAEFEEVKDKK
Protocol: Lser-stomoxyn, Lser-PRP2, and Lser-PRP3 were synthesized by PANATecs (Tübingen, Germany) at >95% purity with C-terminal amidation (Table 1). For the quenching assay, Lser-PRP2 and Lser-PRP3 were synthesized with N-terminal 5(6)-carboxyfluorescein and C-terminal amidation. DnaK was produced by Michael Zahn ([Knappe et al., 2011]). The Black Hole Quencher 10 succinimidyl ester (BHQ10-NHS ester, > 75% purity) was purchased from BioCat (Heidelberg, Germany).
DnaK (2 mg/ml) was dialyzed against the modifying buffer (20 mM Na2HPO4, 20 mM KH2PO4, 5 mM MgCl2, 150 mM KCl; pH 7.4) before labeling with a 10-fold molar excess of BHQ10-NHS ester ([Kreisig et al., 2011]; [Dobslaff et al., 2012]). Excess BHQ10 was removed by further dialysis and the final DnaK concentration was adjusted to […]. To evaluate the labeling efficiency, we measured BHQ10 absorption at 515 nm, and calculated the ratio of dye to protein (mean labeling degree, nine BHQ10 molecules per DnaK).
We mixed 50 μl of the fluorescein-modified peptides (1.3 nM) with 50 μl of a 1:4 serial dilution series of DnaK-BHQ10 in modification buffer (0.8–13,000 nM) in a solid black 384-well plate and incubated the plates for 2 h as previously described ([Dobslaff et al., 2012]). To calculate the quenching effect, control mixtures (50 μl of the peptide solution and 50 μl of the modification buffer) were recorded five times. We recorded the fluorescence intensity on a Paradigm fluorescence reader using a fluorescence (fluo-rhod) detection cartridge (excitation wavelength = 485 ± 10 nm, emission wavelength = 535 ± 12.5 nm, integration time = 140 ms). The quenching effect was expressed as the percentage of the fluorescence intensity of the control quenched after the addition of DnaK-BHQ10.
Dissociation constants (Kd) were determined using SlideWrite v7.01. The quenching effects were plotted against the DnaK concentration (logarithmic abscissa). Kd values were calculated by non-linear regression using the dose–response logistical transition function of the program [y = a 0 + a 1/(1 + x/a 2) a3].

[3] = Figure 2 legend, N-terminal 5(6)-carboxyfluorescein peptide, DnaK-BHQ10
[4] = N-terminal 5(6)-carboxyfluorescein peptide (1.3 nM) + DnaK-BHQ10 (0.8–13,000 nM), 2 h, 384-well, pH 7.4, sigmoidal curve

Substance	bacterial membrane permeabilization ([1]; 0.25 µM, abstract) [%]	bacterial membrane permeabilization ([1]; 1 µM, 45 min at 37°C, bacteria killed by 5 µM cecropin B = 100%, n = 6) [%]	bacterial membrane permeabilization ([1]; 2 µM, 45 min at 37°C, bacteria killed by 5 µM cecropin B = 100%, n = 6) [%]	bacterial membrane permeabilization ([1]; 0.0625 or 0.125 µM, 45 min at 37°C, 20 mM phosphate pH 6.8, n = 6)	bacterial membrane permeabilization ([1]; 0.25–0.5 µM, 45 min at 37°C, bacteria killed by 5 µM cecropin B = 100%, n = 6)	Adhesion forces (E. coli JM83; 0.25 µM, mean ± SD of 25 fields, control 0.174 (± 0.04), ***p ≤ 0.001 vs control, letter a: differs from combination)	Roughness (E. coli JM83; 0.25 µM, mean ± SD of 25 fields, control 0.843 (± 0.22), ***p ≤ 0.001 vs control, letter b: differs from combination)	Young's modulus (E. coli JM83; 0.25 µM, mean ± SD of 25 fields, control 2458 (± 24.52), **p ≤ 0.01 vs control)	flagella (E. coli JM83; Lser-stomoxyn 0.25 µM alone)	cell surface granularity vs controls (E. coli JM83; Lser-stomoxyn 0.25 µM or Lser-PRP2 50 µM alone)	activity against clinical isolates [2]	antibacterial activity (Gram-negative bacteria)	maximum quenching effect (bacterial chaperone DnaK; [3]) [%]	maximum quenching effect (bacterial chaperone DnaK; [4])	Kd (bacterial chaperone DnaK) [nM]
GFRKRFNKLVKKVKHTIKETANVSKDVAIVAGSGVAVGAAMG [Lser-Stomoxyn, Lucilia sericata canonical α-helical antimicrobial peptide, synthesized at >95% purity with C-terminal amidation]	1	12	40	little evidence of permeabilization	1–2%	0.236 (± 0.079)^a*** nN	1.102 (± 0.373)^b*** nm	2601 (± 32.19)** MPa	lost their flagella	considerably more granular than that of the controls	showed activity against clinical isolates of E. coli, Enterobacter spp., Klebsiella spp., Salmonella enterica, Citrobacter freundii, and Acinetobacter spp., as well as multiple isolates of P. aeruginosa	particularly active against Gram-negative bacteria			
SPFVDRPRRPIQHNGPKPRIITNPPFNPNARPAW-NH2 [Lser-PRP3]													> 80	85–88%	300 ± 6
EWRPHGSIGGSGLRPGRPQTLPPQRPRRPDFNGPRHRF-NH2 [Lser-PRP2]													> 80	85–88%	140 ± 10
